Data on seven compounds can be found in patent US20210363213A1, “GLUCAGON-GLP-1-GIP TRIPLE AGONIST COMPOUNDS” (priority 2013, published 2021).

Read-outs that look alike come from different tables or passages of the source. Peptide text beside a SMILES is read from it.

The target of this test is T1, human GIP R (Homo sapiens, UniProt P48546).
T1 construct: expressed in transfected cells
T1 sequence (P48546 22-466): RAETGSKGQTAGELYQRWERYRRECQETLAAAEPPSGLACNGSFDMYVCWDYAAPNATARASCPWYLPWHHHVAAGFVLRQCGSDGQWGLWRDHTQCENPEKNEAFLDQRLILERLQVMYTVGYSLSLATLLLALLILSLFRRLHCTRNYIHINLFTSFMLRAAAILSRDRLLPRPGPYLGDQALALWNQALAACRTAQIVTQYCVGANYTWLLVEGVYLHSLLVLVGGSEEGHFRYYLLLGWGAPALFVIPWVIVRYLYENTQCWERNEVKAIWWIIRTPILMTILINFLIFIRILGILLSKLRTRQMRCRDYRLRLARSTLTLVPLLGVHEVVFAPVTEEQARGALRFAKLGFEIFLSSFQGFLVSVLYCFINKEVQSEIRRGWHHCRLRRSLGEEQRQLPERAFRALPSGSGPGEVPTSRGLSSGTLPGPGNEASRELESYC
The experiment in a line: Human GIP receptor (GIP-R) activity assay, cAMP induction (AlphaScreen) in HEK293 cells. In kind it is cell-based.

Where [1] appears, read: Table 2b (most comprehensive data), average EC50, cAMP in HEK293 cells expressing human GIP R, read-out: GIP R (EC50 in nM).

Description: Briefly, HEK293 cells expressing the human GIP R, GLP-1 R or GCG R (stable cell lines generated through transfection of the cDNA for human GIP R, GLP-1 R or GCG R and selection of stable clones) were seeded at 30,000 cells/well in 96-well microtiter plates coated with 0.01% poly-L-lysine, and grown for 1 day in culture in 200 μl growth medium (DMEM, 10% FCS, Penicillin (100 IU/ml), Streptomycin (100 μg/ml)). On the day of analysis, growth medium was removed and the cells were washed once with 150 μl Tyrode's buffer (Tyrode's Salts (9.6 g/I), 10 mM HEPES, pH 7.4). […] The Assay buffer was removed and cells are lysed in 80 μl Lysis buffer (0.1% w/v BSA, 5 mM HEPES, 0.3% v/v Tween-20) per well. From each well 10 μl of lysed cells were transferred to a 384-well plate and mixed with 15 μl bead-mix (1 Unit/15 μl anti-cAMP Acceptor Beads, 1 Unit/15 μl Donor Beads, and 1 Unit/15 μl Biotinylated cAMP in Assay Buffer). The plates were mixed and incubated in the dark for an hour at room temperature before measuring using an Envision™ plate reader (Perkin-Elmer).
The resulting cAMP curves were plotted as absolute cAMP concentrations (nM) over log (test compound concentration) and analyzed using the curve fitting program XLfit.
Parameters calculated to describe both the potency as well as the agonistic activity of each test compound on the receptors were:
EC50, a concentration resulting in a half-maximal elevation of cAMP levels, reflecting the potency of the test compound.

Take `CC(C)C[C@H](NC(=O)[C@H](CC(C)C)NC(=O)[C@H](Cc1c[nH]c2ccccc12)NC(=O)[C@H](CCC(=O)O)NC(=O)[C@@H](NC(=O)[C@H](Cc1ccccc1)NC(=O)[C@H](CC(=O)O)NC(=O)[C@H](CCCNC(=N)N)NC(=O)[C@H](C)NC(=O)[C@H](C)NC(=O)[C@H](CCCCN)NC(=O)[C@H](CO)NC(=O)[C@H](CC(=O)O)NC(=O)[C@H](CC(C)C)NC(=O)[C@H](Cc1ccc(O)cc1)NC(=O)[C@H](CCCCN)NC(=O)[C@H](CO)NC(=O)[C@H](Cc1ccc(O)cc1)NC(=O)[C@H](CC(=O)O)NC(=O)[C@H](CO)NC(=O)[C@@H](NC(=O)[C@H](Cc1ccccc1)NC(=O)[C@@H](NC(=O)CNC(=O)[C@H](CCC(N)=O)NC(=O)C(C)(C)NC(=O)[C@@H](N)Cc1ccc(O)cc1)[C@@H](C)O)[C@@H](C)O)C(C)C)C(=O)N[C@@H](CO)C(=O)N[C@@H](C)C(N)=O` [Compound 6] (HELM PEPTIDE1{Y.[Aib].Q.G.T.F.T.S.D.Y.S.K.Y.L.D.S.K.A.A.R.D.F.V.E.W.L.L.S.A.[am]}$$$$V2.0): it took 0.32 nM to reach a half-maximal effect (EC50).

Compound `CC(C)C[C@H](NC(=O)[C@H](C)NC(=O)[C@H](CCCCN)NC(=O)[C@H](CO)NC(=O)[C@H](Cc1ccc(O)cc1)NC(=O)[C@H](CC(=O)O)NC(=O)[C@H](CO)NC(=O)[C@@H](NC(=O)[C@H](Cc1ccccc1)NC(=O)[C@@H](NC(=O)CNC(=O)[C@H](CCC(N)=O)NC(=O)C(C)(C)NC(=O)[C@@H](N)Cc1ccc(O)cc1)[C@@H](C)O)[C@@H](C)O)C(=O)N[C@@H](CC(=O)O)C(=O)N[C@@H](CO)C(=O)N[C@@H](CCCCN)C(=O)N[C@@H](C)C(=O)N[C@@H](C)C(=O)N[C@@H](Cc1c[nH]cn1)C(=O)N[C@@H](CC(=O)O)C(=O)N[C@@H](Cc1ccccc1)C(=O)N[C@H](C(=O)N[C@@H](CCC(=O)O)C(=O)N[C@@H](Cc1c[nH]c2ccccc12)C(=O)N[C@@H](CC(C)C)C(=O)N[C@@H](CC(C)C)C(=O)N[C@@H](CO)C(=O)N[C@@H](C)C(N)=O)C(C)C` [Compound 7] (HELM PEPTIDE1{Y.[Aib].Q.G.T.F.T.S.D.Y.S.K.A.L.D.S.K.A.A.H.D.F.V.E.W.L.L.S.A.[am]}$$$$V2.0) showed an EC50 of 0.5 nM.

The compound `CC[C@H](C)[C@H](NC(=O)[C@H](CO)NC(=O)[C@H](Cc1ccc(O)cc1)NC(=O)[C@H](CC(=O)O)NC(=O)[C@H](CO)NC(=O)[C@@H](NC(=O)[C@H](Cc1ccccc1)NC(=O)[C@@H](NC(=O)CNC(=O)[C@H](CCC(N)=O)NC(=O)C(C)(C)NC(=O)[C@@H](N)Cc1ccc(O)cc1)[C@@H](C)O)[C@@H](C)O)C(=O)N[C@@H](Cc1ccc(O)cc1)C(=O)N[C@@H](CC(C)C)C(=O)N[C@@H](CC(=O)O)C(=O)N[C@@H](CO)C(=O)N[C@@H](CCCCN)C(=O)N[C@@H](C)C(=O)N[C@@H](C)C(=O)N[C@@H](CCCCN)C(=O)N[C@@H](CC(=O)O)C(=O)N[C@@H](Cc1ccccc1)C(=O)N[C@H](C(=O)N[C@@H](CCC(=O)O)C(=O)N[C@@H](Cc1c[nH]c2ccccc12)C(=O)N[C@@H](CC(C)C)C(=O)N[C@@H](CC(C)C)C(=O)N[C@@H](CO)C(=O)N[C@@H](C)C(N)=O)C(C)C` [Compound 10] (HELM PEPTIDE1{Y.[Aib].Q.G.T.F.T.S.D.Y.S.I.Y.L.D.S.K.A.A.K.D.F.V.E.W.L.L.S.A.[am]}$$$$V2.0) showed an EC50 of 0.2 nM.

As for `CC[C@H](C)[C@H](NC(=O)[C@H](CO)NC(=O)[C@H](Cc1ccc(O)cc1)NC(=O)[C@H](CC(=O)O)NC(=O)[C@H](CO)NC(=O)[C@@H](NC(=O)[C@H](Cc1ccccc1)NC(=O)[C@@H](NC(=O)CNC(=O)[C@H](CCC(N)=O)NC(=O)C(C)(C)NC(=O)[C@@H](N)Cc1ccc(O)cc1)[C@@H](C)O)[C@@H](C)O)C(=O)N[C@@H](Cc1ccc(O)cc1)C(=O)N[C@@H](CC(C)C)C(=O)N[C@@H](CC(=O)O)C(=O)N[C@@H](CO)C(=O)N[C@@H](CCCCN)C(=O)N[C@@H](C)C(=O)N[C@@H](C)C(=O)N[C@@H](Cc1c[nH]cn1)C(=O)N[C@@H](CC(=O)O)C(=O)N[C@@H](Cc1ccccc1)C(=O)N[C@H](C(=O)N[C@@H](CC(N)=O)C(=O)N[C@@H](Cc1c[nH]c2ccccc12)C(=O)N[C@@H](CC(C)C)C(=O)N[C@@H](CC(C)C)C(=O)N[C@@H](CO)C(=O)N[C@@H](C)C(N)=O)C(C)C` [Compound 11] (HELM PEPTIDE1{Y.[Aib].Q.G.T.F.T.S.D.Y.S.I.Y.L.D.S.K.A.A.H.D.F.V.N.W.L.L.S.A.[am]}$$$$V2.0), the EC50 turned out to be 0.25 nM.

For the compound `CCCCCCCCCCCCCCCC(=O)N[C@@H](CCC(=O)NCCCC[C@H](NC(=O)[C@H](CO)NC(=O)[C@H](Cc1ccc(O)cc1)NC(=O)[C@H](CC(=O)O)NC(=O)[C@H](CO)NC(=O)[C@@H](NC(=O)[C@H](Cc1ccccc1)NC(=O)[C@@H](NC(=O)CNC(=O)[C@H](CCC(N)=O)NC(=O)C(C)(C)NC(=O)[C@@H](N)Cc1ccc(O)cc1)[C@@H](C)O)[C@@H](C)O)C(=O)N[C@@H](Cc1ccc(O)cc1)C(=O)N[C@@H](CC(C)C)C(=O)N[C@@H](CCC(=O)O)C(=O)N[C@@H](CCCCN)C(=O)N[C@@H](CCCCN)C(=O)N[C@@H](C)C(=O)N[C@@H](C)C(=O)N[C@@H](CCCCN)C(=O)N[C@@H](CCC(=O)O)C(=O)N[C@@H](Cc1ccccc1)C(=O)N[C@H](C(=O)N[C@@H](CCC(=O)O)C(=O)N[C@@H](Cc1c[nH]c2ccccc12)C(=O)N[C@@H](CC(C)C)C(=O)N[C@@H](CC(C)C)C(=O)N[C@@H](CO)C(=O)N[C@@H](C)C(N)=O)C(C)C)C(=O)O` [Compound 25] (HELM PEPTIDE1{Y.[Aib].Q.G.T.F.T.S.D.Y.S.K.Y.L.E.K.K.A.A.K.E.F.V.E.W.L.L.S.A.[am]}|PEPTIDE2{[CCCCCCCCCCCCCCCC(=O)[*:2]].[gGlu]}$PEPTIDE1,PEPTIDE2,12:R3-2:R2$$$V2.0), the EC50 under setting [1] stood at 0.19 nM.

Take `CCCCCCCCCCCCCCCC(=O)N[C@@H](CCC(=O)NCCCC[C@H](NC(=O)[C@H](CO)NC(=O)[C@H](CC(=O)O)NC(=O)[C@H](CC(C)C)NC(=O)[C@H](Cc1ccc(O)cc1)NC(=O)[C@@H](NC(=O)[C@H](CO)NC(=O)[C@H](Cc1ccc(O)cc1)NC(=O)[C@H](CC(=O)O)NC(=O)[C@H](CO)NC(=O)[C@@H](NC(=O)[C@H](Cc1ccccc1)NC(=O)[C@@H](NC(=O)CNC(=O)[C@H](CCC(N)=O)NC(=O)C(C)(C)NC(=O)[C@@H](N)Cc1ccc(O)cc1)[C@@H](C)O)[C@@H](C)O)[C@@H](C)CC)C(=O)N[C@@H](C)C(=O)N[C@@H](C)C(=O)N[C@@H](Cc1c[nH]cn1)C(=O)N[C@@H](CC(=O)O)C(=O)N[C@@H](Cc1ccccc1)C(=O)N[C@H](C(=O)N[C@@H](CCC(=O)O)C(=O)N[C@@H](Cc1c[nH]c2ccccc12)C(=O)N[C@@H](CC(C)C)C(=O)N[C@@H](CC(C)C)C(=O)N[C@@H](CCCNC(=N)N)C(=O)N[C@@H](C)C(N)=O)C(C)C)C(=O)O` [Compound 27] (HELM PEPTIDE1{Y.[Aib].Q.G.T.F.T.S.D.Y.S.I.Y.L.D.S.K.A.A.H.D.F.V.E.W.L.L.R.A.[am]}|PEPTIDE2{[CCCCCCCCCCCCCCCC(=O)[*:2]].[gGlu]}$PEPTIDE1,PEPTIDE2,17:R3-2:R2$$$V2.0): the EC50 under setting [1] amounted to 0.099 nM.

For the compound `CCCCCCCCCCCCCCCC(=O)N[C@@H](CCC(=O)NCCCC[C@H](NC(=O)[C@H](CO)NC(=O)[C@H](CC(=O)O)NC(=O)[C@H](CC(C)C)NC(=O)[C@H](Cc1ccc(O)cc1)NC(=O)[C@@H](NC(=O)[C@H](CO)NC(=O)[C@H](Cc1ccc(O)cc1)NC(=O)[C@H](CC(=O)O)NC(=O)[C@H](CO)NC(=O)[C@@H](NC(=O)[C@H](Cc1ccccc1)NC(=O)[C@@H](NC(=O)CNC(=O)[C@H](CCC(N)=O)NC(=O)C(C)(C)NC(=O)[C@@H](N)Cc1ccc(O)cc1)[C@@H](C)O)[C@@H](C)O)[C@@H](C)CC)C(=O)N[C@@H](C)C(=O)N[C@@H](C)C(=O)N[C@@H](Cc1c[nH]cn1)C(=O)N[C@@H](CC(=O)O)C(=O)N[C@@H](Cc1ccccc1)C(=O)N[C@H](C(=O)N[C@@H](CCC(=O)O)C(=O)N[C@@H](Cc1c[nH]c2ccccc12)C(=O)N[C@@H](CC(C)C)C(=O)N[C@@H](CC(C)C)C(=O)N[C@@H](CO)C(=O)N[C@@H](C)C(=O)NCC(=O)N1CCC[C@H]1C(=O)N[C@@H](CO)C(=O)N[C@@H](CO)C(=O)NCC(=O)N[C@@H](C)C(=O)N1CCC[C@H]1C(=O)N1CCC[C@H]1C(=O)N1CCC[C@H]1C(=O)N[C@@H](CO)C(N)=O)C(C)C)C(=O)O` [Compound 29] (HELM PEPTIDE1{Y.[Aib].Q.G.T.F.T.S.D.Y.S.I.Y.L.D.S.K.A.A.H.D.F.V.E.W.L.L.S.A.G.P.S.S.G.A.P.P.P.S.[am]}|PEPTIDE2{[CCCCCCCCCCCCCCCC(=O)[*:2]].[gGlu]}$PEPTIDE1,PEPTIDE2,17:R3-2:R2$$$V2.0), under setting [1], the EC50 turned out to be 0.064 nM.
